Patent EP1939191A1, “Furan derivatives, method of synthesis and uses thereof” (Neuropharma S.A., priority 2006, dated 2008)

Target: Recombinant human glycogen synthase kinase 3 beta (Homo sapiens, UniProt P49841)
Test: GSK-3 beta inhibition assay (33P-ATP, GS-2 peptide substrate, phosphocellulose filter counting)
Format: biochemical
Settings: result in percentage of enzyme activity (lower = more inhibition); for activity at 50 µM: test compound at 50µM; for activity at 25 µM: test compound at 25µM
Description: The GSK-3 beta activity of the compounds of formula (I) according to the present invention was determined by incubation of a mixture of recombinant human GSK-3 enzyme, a phosphate source and GSK-3 substrate in the presence and in the absence of the corresponding test compound, and by measuring the GSK-3 activity of this mixture. The compounds where tested at final concentrations of 25 and 50 µM.
Recombinant human glycogen synthase kinase 3 beta was assayed in MOPS 8 mM pH 7.3, EDTA 0.2 mM, MgCl2 10 mM and sodium orthovanadate 0.25 mM in the presence of 62.5 µM of Phospho-Glycogen Synthase Peptide-2 (GS-2), 0.5 µCi gamma-^33P-ATP and unlabelled ATP at a final concentration of 12.5 µM. The final assay volume was 20 µl. After incubation for 30 minutes at 30 °C, 15 µl aliquots were spotted onto P81 phosphocellulose papers. Filters were washed four times for at least 10 minutes each and counted with 1.5 ml of scintillation cocktail in a scintillation counter.
The compounds of formula (I) of the present invention where submitted to the above indicated assays, in order to determine both their GSK-3 inhibition activity and BACE activity inhibition. The results are indicated in Table I, in percentage of the respective enzyme activity.

Sequence of Recombinant human glycogen synthase kinase 3 beta (P49841 whole entry): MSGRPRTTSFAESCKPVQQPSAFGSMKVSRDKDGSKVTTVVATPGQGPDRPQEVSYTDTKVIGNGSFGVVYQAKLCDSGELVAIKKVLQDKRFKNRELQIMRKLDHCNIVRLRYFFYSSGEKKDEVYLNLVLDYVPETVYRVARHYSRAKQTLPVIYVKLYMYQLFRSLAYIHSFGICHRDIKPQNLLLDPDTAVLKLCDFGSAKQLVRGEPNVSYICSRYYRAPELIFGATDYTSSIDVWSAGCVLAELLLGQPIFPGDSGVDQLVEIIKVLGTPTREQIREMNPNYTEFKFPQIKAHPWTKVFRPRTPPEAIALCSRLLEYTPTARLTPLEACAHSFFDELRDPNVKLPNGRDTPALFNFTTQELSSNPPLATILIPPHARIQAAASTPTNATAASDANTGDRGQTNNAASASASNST

activity at 25 µM [%] | Structure (SMILES) | activity at 50 µM [%]
– | CC(C)(C)[Si](OCCc1ccco1)(c1ccccc1)c1ccccc1 [tert-Butyl-(2-furan-2-yl-ethoxy)-diphenyl-silane] | 47.6
61.1 | OCC=Cc1ccoc1 [3-Furan-3-yl-prop-2-en-1-ol] | 55.6
– | CC(C)(C)[Si](OCC(O)c1ccco1)(c1ccccc1)c1ccccc1 (stereo not shown) [2-(tert-Butyl-diphenyl-silanyloxy)-1-furan-2-yl-ethanol] | 48.6
83.7 | CCOC(=O)C=C(C)CCCc1ccoc1 [6-Furan-3-yl-3-methyl-hex-2-enoic acid ethyl ester] | 67.4
– | CC(C)(C)[Si](OCCCCCCc1ccco1)(c1ccccc1)c1ccccc1 [tert-Butyl-(6-furan-2-yl-hexyloxy)-diphenyl-silane] | 5.08
– | CC(C)(C)[Si](OCCCc1ccco1)(c1ccccc1)c1ccccc1 [tert-Butyl-(3-furan-2-yl-propoxy)-diphenyl-silane] | 33.5
– | CC(C)(C)[Si](OCCCCCc1ccco1)(c1ccccc1)c1ccccc1 [tert-Butyl-(5-furan-2-yl-pentyloxy)-diphenyl-silane] | 16.1
– | CC(C)(C)[Si](OCCCSCc1ccco1)(c1ccccc1)c1ccccc1 [tert-Butyl-[3-(furan-2-ylmethylsulfanyl)-propoxy]-diphenyl-silane] | 17.4
45 | CC(=CC=CC(C)CCC=C(C)COC(=O)C(C)(C)C)CCCc1ccoc1 (stereo not shown) [2,2-Dimethyl-propionic acid 13-furan-3-yl-2,6,10-trimethyl-trideca-2,7,9-trienyl ester] | 27
83.7 | CC(=CCCC(C)C=CC=C(C)CCCc1ccoc1)CO (stereo not shown) [13-Furan-3-yl-2,6,10-trimethyl-trideca-2,7,9-trien-1-ol] | 61.2

Structure (SMILES) | activity at 25 µM [%] | activity at 50 µM [%]
CC(=CC=CC(C)CCCO[Si](c1ccccc1)(c1ccccc1)C(C)(C)C)CCCc1ccoc1 (stereo not shown) [tert-Butyl-(11-furan-3-yl-4,8-dimethyl-undeca-5,7-dienyloxy)-diphenyl-silane] | 29 | 14
